ChEMBL document CHEMBL1141636, “New ultra-short acting hypnotic: synthesis, biological evaluation, and metabolic profile of ethyl 8-oxo-5,6,7,8-tetrahydro-thiazolo[3,2-a][1,3]diazepin-3-carboxylate (HIE-124)” (Bioorg Med Chem Lett, 2008)

Experiments:
Mus musculus [1] = experiment: Hypnotic effect in mouse assessed as sleeping time at 50 mg/kg, iv by loss of righting reflex method; format: functional
Mus musculus [2] = experiment: Hypnotic effect in mouse assessed as sleeping time at 100 mg/kg, iv by loss of righting reflex method; format: functional
Mus musculus [3] = experiment: Potentiation of thiopental-induced hypnosis in mouse assessed as sleeping time at 50 mg/kg, iv by loss of righting reflex method; format: functional
Mus musculus [4] = experiment: Potentiation of thiopental-induced hypnosis in mouse assessed as sleeping time at 100 mg/kg, iv by loss of righting reflex method; format: functional
Mus musculus [5] = experiment: Hypnotic effect in mouse assessed as sleeping time at 100 mg/kg, ip; format: functional; details: route intraperitoneal
Mus musculus [6] = experiment: Hypnotic effect in mouse assessed as sleeping time at 200 mg/kg, ip; format: functional; details: route intraperitoneal
Mus musculus [7] = experiment: Potentiation of thiopental-induced hypnosis in mouse assessed as sleeping time at 100 mg/kg, ip; format: functional; details: route intraperitoneal
Mus musculus [8] = experiment: Potentiation of thiopental-induced hypnosis in mouse assessed as sleeping time at 200 mg/kg, ip; format: functional; details: route intraperitoneal
Mus musculus [9] = experiment: Acute tolerance in mouse assessed as sleeping time at 200 mg/kg, ip 3 times day after 3 days; format: ADME, organism-based; set-up: dose 200 mg/kg, route intraperitoneal; details: in vivo, 72 h
Mus musculus [10] = experiment: Acute tolerance in mouse assessed as sleeping time at 200 mg/kg, ip; format: ADME, organism-based; set-up: dose 200 mg/kg, route intraperitoneal; details: in vivo
Mus musculus [11] = experiment: Hypnotic effect in mouse assessed as sleeping time at 65 mg/kg, ip; format: functional; details: route intraperitoneal

| Structure (SMILES) | Time (Mus musculus [1]) | Time (Mus musculus [2]) | Time (Mus musculus [3]) | Time (Mus musculus [4]) | Time (Mus musculus [5]) | Time (Mus musculus [6]) | Time (Mus musculus [7]) | Time (Mus musculus [8]) | Time (Mus musculus [9]) | Time (Mus musculus [10]) | Time (Mus musculus [11]) |
| --- | --- | --- | --- | --- | --- | --- | --- | --- | --- | --- | --- |
| CCOC(=O)C1=CSC2=NC(=O)CCCN12 | 0.75 min | 1.48 min | 19.9 min | 25.7 min | 2.4 min | 9.1 min | 49.2 min | 155.7 min | 8.7 min | 10.3 min | – |
| CCCC(C)C1(CC)C(=O)[N-]C(=S)NC1=O.[Na+] (configuration not stated) [THIOPENTAL SODIUM] | 4.9 min | – | – | – | – | – | – | – | – | – | 15.2 min |
